Measurements: patent US4161595A, “Levulinic acid salt” (Bristol-Myers Company, priority 1978, dated 1979)
In brackets after ≈: the same amount, converted by molar mass. Where a name gives a salt, the structure may show the parent alone.

Columns and labels:
[1] = In situ solubility of acid addition salts of BL-5111 in water; assay type: physicochemical; details: for Solubility 50° C. / Solubility 25° C.: 10 mg. BL-5111 free base in 0.3 ml. water with excess of the acid; for Solubility 25° C.: room temperature (about 25° C.)
[2] = Comparative water stability of 1:1 and 1:1.3 levulinate salts; assay type: physicochemical
[3] = Comparative water solubility of 1:1 and 1:1.3 levulinate salts; assay type: physicochemical
[4] = Comparative quantitative solubility study in water and methylene chloride; assay type: physicochemical; details: 25° C.; for Solubility in Methylene Chloride: measure of lipid solubility
Description: In comparison to the hydrochloride salt of BL-5111, the 1:1.3 levulinate salt form has substantially greater water and lipid solubility. TABLE 3 below sets forth results of a comparative quantitative study of the BL-5111 hydrochloride and the 1:1.3 levulinate salt in water and methylene chloride. Solubility in methylene chloride is a measure of lipid solubility which plays an important role in any distribution in the body.

[5] = Plasma levels in dogs after oral administration by gavage; assay type: in vivo; details: equivalent to 10 mg. BL-5111 free base, fasted beagle dogs
Experimental: With respect to oral administration, the BL-5111 levulinate provides improved absorption compared to the hydrochloride salt as illustrated by enhanced plasma levels in dogs. Thus, BL-5111 levulinate (equivalent to 10 mg. of BL-5111 free base) was orally administered by gavage as a solution in 5 ml. of water followed by 20 ml. of water to beagle dogs which had been fasted 12 to 15 hours. The BL-5111 hydrochloride (equivalent to 10 mg. of the BL-5111 free base) was likewise administered with the exception that a suspension was employed due to tendency of the hydrochloride to dissolve at a rate appreciably slower than the levulinate. […] Moreover, maximum plasma level following administration was approximately three-fold greater for the levulinate than the hydrochloride while the extent of absorption of BL-5111 levulinate (determined by comparison of the area under plasma concentration-time curves taken over a period of 24 hr.) was more than double that of BL-5111 hydrochloride.

Compound	Solubility 50° C. [1]	Solubility 25° C. [1]	also measured
COc1cc2nc(N3CCN(C(=O)c4nnc(SC)o4)CC3)nc(N)c2cc1OC [hydrobromic]	- (insoluble (-))	- (insoluble (-))	–
COc1cc2nc(N3CCN(C(=O)c4nnc(SC)o4)CC3)nc(N)c2cc1OC [1:1, levulinic acid salt of 4-amino-6,7-dimethoxy-2-[4-(5-methylthio-1,3,4-oxadiazole-2-carbonyl)-piperazin-1-yl]quinazoline]	–	–	Solubility and stability relative to the 1:1.3 levulinate ([2]; water, Table 2 data): relatively less soluble and stable; Solubility ([3]; 2.5 mg./ml., at 50° C.): soluble; Solubility ([3]; 10 mg./ml., at 50° C.): soluble; Solubility ([3]; 50 mg./ml., at 80° C.): insoluble
COc1cc2nc(N3CCN(C(=O)c4nnc(SC)o4)CC3)nc(N)c2cc1OC [phosphoric]	- (insoluble (-))	- (insoluble (-))	–
COc1cc2nc(N3CCN(C(=O)c4nnc(SC)o4)CC3)nc(N)c2cc1OC [fumaric]	- (insoluble (-))	- (insoluble (-))	–
COc1cc2nc(N3CCN(C(=O)c4nnc(SC)o4)CC3)nc(N)c2cc1OC [succinic]	+ (soluble (+))	- (insoluble (-))	–
COc1cc2nc(N3CCN(C(=O)c4nnc(SC)o4)CC3)nc(N)c2cc1OC [hydrochloride]	–	–	Solubility in Water [4]: 4.42 mg/mL; Solubility in Methylene Chloride [4]: < 1 mg/mL; Time at which maximum plasma levels reached ([5]; levulinate as solution, hydrochloride as suspension, listed as BL-5111 hydrochloride): 2 h; Solubility 50° C. ([1]; listed as hydrochloric): - (insoluble (-)); Solubility 25° C. ([1]; listed as hydrochloric): - (insoluble (-))
COc1cc2nc(N3CCN(C(=O)c4nnc(SC)o4)CC3)nc(N)c2cc1OC [methanesulfonic]	- (insoluble (-))	- (insoluble (-))	–
COc1cc2nc(N3CCN(C(=O)c4nnc(SC)o4)CC3)nc(N)c2cc1OC [acetic]	+ (soluble (+))	+ (soluble (+))	Solubility ([1]; room temperature, 10 mg./0.3 ml. water, read-out: Solubility sufficient to provide a solution): ≥ 33 mg/mL
COc1cc2nc(N3CCN(C(=O)c4nnc(SC)o4)CC3)nc(N)c2cc1OC [nitric]	- (insoluble (-))	- (insoluble (-))	–
COc1cc2nc(N3CCN(C(=O)c4nnc(SC)o4)CC3)nc(N)c2cc1OC [1:1.3 levulinate, 4-AMINO-6,7-DIMETHOXY-2-[4-(5-METHYLTHIO-1,3,4-OXADIAZOLE-2-CARBONYL)-PIPERAZIN-1-YL]QUINAZOLINE LEVULINATE]	–	–	Solubility in Water [4]: 38.0 mg/mL (≈ 88.1 mM); Water solubility, times that of the hydrochloride salt [4]: about 8.6 times; Solubility in Methylene Chloride [4]: > 100 mg/mL; Stability of aqueous solution ([2]; room temperature): stable; Stability ([2]; water, 10 mg./ml., room temperature, listed as 1:1.3): stable; Stability ([2]; water, 50 mg./ml., room temperature): stable; Solubility ([3]; 10 mg./ml., room temperature): soluble; Solubility ([3]; 50 mg./ml., at 50° C.): soluble; Maximum plasma level relative to the hydrochloride [5]: approximately three-fold; Extent of absorption (area under plasma concentration-time curves) relative to BL-5111 hydrochloride ([5]; over 24 hr.): more than double
COc1cc2nc(N3CCN(C(=O)c4nnc(SC)o4)CC3)nc(N)c2cc1OC [isethionic]	- (insoluble (-))	- (insoluble (-))	–
COc1cc2nc(N3CCN(C(=O)c4nnc(SC)o4)CC3)nc(N)c2cc1OC [formic]	+ (soluble (+))	± (questionable (±))	–
COc1cc2nc(N3CCN(C(=O)c4nnc(SC)o4)CC3)nc(N)c2cc1OC [sulfuric]	- (insoluble (-))	- (insoluble (-))	–
